# In patent publication US7524866B2, “Prevention and treatment of androgen—deprivation induced osteoporosis” (GTx, Inc., priority 2001, dated 2009):
# Experiments:
# Orx rat = test: Prostate weight in the Orx rat (Example 4); type: in vivo; conditions: Orx rat (Orx decreased prostate weight by 77%); FIG. 3
# Text: (§1) Eight month-old male Sprague Dawley rats were either sham-operated (SHAM) or orchidectomized (ORX). Treatment began immediately following surgery. The treatment groups were as described in Table 5.
# Osteocalcin in rat serum = test: Osteocalcin (OC) in rat serum (Example 4); type: in vivo; conditions: Orx rats; for OC (osteocalcin) levels in serum: 10 days; for inhibitory effect on OC levels: 28 days
# Description: This assay is specific for rat Osteocalcin and both carboxylated and decarboxylated rat Osteocalcin are recognized. A monoclonal antibody against the N-terminal region of Osteocalcin is bound to the polystyrene wells. The assay was performed in duplicates. 100 ul of standards, control and 1 to 20 diluted samples were added to appropriate wells and incubated overnight at 4 C. After washing the strips, 100 ul of Goat polyclonal antibody of high specificity for C-terminus of rat Osteocalcin was added and incubated 60 min at 37 C. After washing, 100 ul of Donkey anti-goat IgG peroxidase conjugated antibody was added and incubated 60 min at 22 C. The wells were washed and a mix of TMB and peroxide solution was added and incubated 30 min at 22 C in the dark. The reaction was stopped, and the absorbance was measured at 450 nm. A standard curve was constructed using 4-parametric logistic curve fit. Sample osteocalcin concentrations were determined by interpolation. Eight month-old male Sprague Dawley rats were either sham-operated (SHAM) or orchidectomized (ORX). Treatment began immediately following surgery. The treatment groups were as described in Table 5.
# [1] = test system: orchidectomized rats (ORX); test: Compression test of the vertebral body (L5) (Example 4); type: in vivo, rat; conditions: for Elastic Modulus / Energy / Maximum Load / Stiffness / Toughness / Ultimate Strength: 12 weeks, vertebral body compression, mean
# Description: Eight month-old male Sprague Dawley rats were either sham-operated (SHAM) or orchidectomized (ORX). Treatment began immediately following surgery. The treatment groups were as described in Table 5. Bone strength was evaluated using a compression test at the vertebral body, a three point bending test at the femoral shaft, a compression test at the distal femur and a cantilever compression test of the femoral neck. Prior to mechanical testing, all samples were thawed in cold saline and carefully cleaned of any remaining adherent soft tissue.
# [2] = test system: C-telopeptide of rat collagen I in serum; test: Serum RatLaps ELISA, C-telopeptide of type I collagen, orchidectomy model (Example 3); type: in vivo; conditions: orchidectomized rats, 15 and 30 days; Toremifene 5 mg/kg/day, 17-β-estradiol 0.5 mg/kg/day s.c.; FIG. 1
# Description: Male Sprague-Dawley rats (Harlan Sprague Dawley) were placed on study at 14-weeks of age. They were randomized and divided into five treatment groups: vehicle only (placebo, or P) after sham operation, vehicle only after orchidectomy (Orx), Toremifene (5 mg/kg/day) after sham-operation, and Toremifene after orchidectomy, and 17-β-estradiol (0.5 mg/kg/day) after orchidectomy. Test articles were delivered subcutaneously by Alzet pumps. Pumps were re-implanted every 30 days until the end of the study. Five to six animals from each group were sacrificed after 60 and 120 days of treatment, and femurs were harvested, stripped of soft tissue and muscle, and stored individually in polypropylene vials at −80° C. until analysis of bone density and mechanical strength testing. Additionally, serum was collected on days 15, 30, 60, 90 and 120, to measure markers of bone metabolism and to perform serum chemistry. […]
# The assay was performed in duplicates, each 20 ul of serum as well as standards and control. […] After washing the strips 100 ul of the Chromogenic Substrate Solution was added to each well, and after 15 min the reaction was stopped and the absorbance was measured at 450 nm. The means of the duplicate absorbance determination were calculated, and a standard curve was constructed using 4-parametric logistic curve fit. Sample RatLaps concentrations were determined by interpolation.
# [3] = test system: orchidectomized rats (ORX); test: Ex vivo DXA of the femur (BMC, BA, BMD) (Example 4); type: in vivo, rat; conditions: for Distal femur Bone Area / Distal femur Bone Mineral Content / Distal femur Bone Mineral Density / Midshaft femur Bone Area / Midshaft femur Bone Mineral Content / Midshaft femur Bone Mineral Density / Proximal femur Bone Area / Proximal femur Bone Mineral Content / Proximal femur Bone Mineral Density / Whole femur Bone Area / Whole femur Bone Mineral Content / Whole femur Bone Mineral Density: ORX rats, 6 wks, mean; for bone mass of the whole femur (DXA): 6 weeks of treatment; for loss in bone mineral density at the proximal femur (DXA): 10 mg/kg/d Tor, E 0.2 mg/kg/d; for bone density at the distal femur (DXA): 10 mg/kg/d toremifene, E 0.2 mg/kg/d (p<0.05 vs. Orx+Vehicle for E)
# Description: as §1
# Ex vivo DXA analysis was performed on the vertebra (L5) using a PIXImus instrument and associated animal research software (Lunar Corporation, Madison, Wis.). Bone mineral content (BMC), bone area (BA) and bone mineral density (BMD) are reported. Ex vivo DXA analysis was performed on the femur using a pDXA Sabre and associated animal research software (Norland Medical Systems, Inc., Fort Atkinson, Wis.). BMC, BA and BMD are reported for four regions of interest: whole femur, 25% distal femur, 25% proximal femur and 50% of midshaft femur.
# [4] = week 12, Toremifene 5 and 10 mg/kg/d, Estradiol 0.2 mg/kg/d
# [5] = Toremifene 5 mg/kg/d, Estradiol 0.2 mg/kg/d
structure (smiles),measurement,setting,value
C[C@]12CC[C@@H]3c4ccc(O)cc4CC[C@H]3[C@@H]1CC[C@@H]2O [17-β-Estradiol],prostate weight,Orx rat,no effect on prostate weight
same,OC (osteocalcin) levels in serum,"Osteocalcin in rat serum; E 0.2 mg/kg/d, 5 mg-Tor",reversed OC levels to slightly below that of Sham group
same,Elastic Modulus,[1]; 0.2 mg/kg/d,589.03 MPa
same,Energy,[1]; 0.2 mg/kg/d,43.60 mJ
same,Maximum Load,[1]; 0.2 mg/kg/d,298.04 N
same,Stiffness,[1]; 0.2 mg/kg/d,1648.17 N/mm
same,Toughness,[1]; 0.2 mg/kg/d,0.94 MJ/m^3
same,Ultimate Strength,[1]; 0.2 mg/kg/d,25.75 N/mm^2
same,"ORX-induced decreases in bone strength, compression test of the vertebral body",[1]; [4],prevented loss of bone strength due to ORX
same,C-telopeptide levels in serum,[2],reduced the C-telopeptide levels to or below control values
same,Distal femur Bone Area,[3]; [5],0.674 cm^2
same,Distal femur Bone Mineral Content,[3]; [5],0.162 gm
same,Distal femur Bone Mineral Density,[3]; [5],0.240 gm/cm^2
same,Midshaft femur Bone Area,[3]; [5],1.128 cm^2
same,Midshaft femur Bone Mineral Content,[3]; [5],0.281 gm
same,Midshaft femur Bone Mineral Density,[3]; [5],0.250 gm/cm^2
same,Proximal femur Bone Area,[3]; [5],0.685 cm^2
same,Proximal femur Bone Mineral Content,[3]; [5],0.167 gm
same,Proximal femur Bone Mineral Density,[3]; [5],0.245 gm/cm^2
same,Whole femur Bone Area,[3]; [5],2.480 cm^2
same,Whole femur Bone Mineral Content,[3]; [5],0.609 gm
same,Whole femur Bone Mineral Density,[3]; [5],0.246 gm/cm^2
same,bone mineral density at the midshaft femur (DXA),"[3]; Orx rats, 6 weeks",did not show any effect
same,bone mass of the whole femur (DXA),[3]; Orx rats,did not exhibit any significant effect
same,loss in bone mineral density at the proximal femur (DXA),"[3]; Orx rats, 6 weeks",somewhat helpful in preventing this loss
same,bone density at the distal femur (DXA),"[3]; Orx rats, 6 weeks",significantly improved overall density
CN(C)CCOc1ccc(/C(=C(/CCCl)c2ccccc2)c2ccccc2)cc1 [Toremifene],prostate weight,Orx rat,no effect on prostate weight
same,OC (osteocalcin) levels in serum,Osteocalcin in rat serum; 10 mg-Tor,reversed OC levels to slightly below that of Sham group
same,OC (osteocalcin) levels in serum,"Osteocalcin in rat serum; E 0.2 mg/kg/d, 5 mg-Tor",reversed OC levels to slightly below that of Sham group
same,inhibitory effect on OC levels,"Osteocalcin in rat serum; continued at 42 days, 10 mg-Tor",more pronounced than both 5 mg Tor and E
same,inhibitory effect on OC levels,Osteocalcin in rat serum; 5 mg-Tor,same as E
same,Elastic Modulus,[1]; 5 mg/kg/d,446.38 MPa
same,Energy,[1]; 5 mg/kg/d,36.60 mJ
same,Maximum Load,[1]; 5 mg/kg/d,238.19 N
same,Stiffness,[1]; 5 mg/kg/d,1391.70 N/mm
same,Toughness,[1]; 5 mg/kg/d,0.72 MJ/m^3
same,Ultimate Strength,[1]; 5 mg/kg/d,19.08 N/mm^2
same,Elastic Modulus,[1]; 10 mg/kg/d,438.64 MPa
same,Energy,[1]; 10 mg/kg/d,27.02 mJ
same,Maximum Load,[1]; 10 mg/kg/d,206.48 N
same,Stiffness,[1]; 10 mg/kg/d,1255.47 N/mm
same,Toughness,[1]; 10 mg/kg/d,0.59 MJ/m^3
same,Ultimate Strength,[1]; 10 mg/kg/d,18.12 N/mm^2
same,"ORX-induced decreases in bone strength, compression test of the vertebral body",[1]; [4],did not prevent these changes
same,"ORX-induced decreases in bone strength, compression test of the vertebral body","[1]; week 12, Toremifene at the 10 mg/kg/d dose",may have worsened the changes
same,C-telopeptide levels in serum,[2],reduced the C-telopeptide levels to or below control values
same,Distal femur Bone Area,[3]; [5],0.649 cm^2
same,Distal femur Bone Mineral Content,[3]; [5],0.145 gm
same,Distal femur Bone Mineral Density,[3]; [5],0.224 gm/cm^2
same,Midshaft femur Bone Area,[3]; [5],1.086 cm^2
same,Midshaft femur Bone Mineral Content,[3]; [5],0.271 gm
same,Midshaft femur Bone Mineral Density,[3]; [5],0.249 gm/cm^2
same,Proximal femur Bone Area,[3]; [5],0.658 cm^2
same,Proximal femur Bone Mineral Content,[3]; [5],0.154 gm
same,Proximal femur Bone Mineral Density,[3]; [5],0.234 gm/cm^2
same,Whole femur Bone Area,[3]; [5],2.389 cm^2
same,Whole femur Bone Mineral Content,[3]; [5],0.570 gm
same,Whole femur Bone Mineral Density,[3]; [5],0.238 gm/cm^2
same,Distal femur Bone Area,[3]; Toremifene 10 mg/kg/d,0.659 cm^2
same,Distal femur Bone Mineral Content,[3]; Toremifene 10 mg/kg/d,0.152 gm
same,Distal femur Bone Mineral Density,[3]; Toremifene 10 mg/kg/d,0.230 gm/cm^2
same,Midshaft femur Bone Area,[3]; Toremifene 10 mg/kg/d,1.094 cm^2
same,Midshaft femur Bone Mineral Content,[3]; Toremifene 10 mg/kg/d,0.286 gm
same,Midshaft femur Bone Mineral Density,[3]; Toremifene 10 mg/kg/d,0.261 gm/cm^2
same,Proximal femur Bone Area,[3]; Toremifene 10 mg/kg/d,0.672 cm^2
same,Proximal femur Bone Mineral Content,[3]; Toremifene 10 mg/kg/d,0.164 gm
same,Proximal femur Bone Mineral Density,[3]; Toremifene 10 mg/kg/d,0.244 gm/cm^2
same,Whole femur Bone Area,[3]; Toremifene 10 mg/kg/d,2.420 cm^2
same,Whole femur Bone Mineral Content,[3]; Toremifene 10 mg/kg/d,0.601 gm
same,Whole femur Bone Mineral Density,[3]; Toremifene 10 mg/kg/d,0.248 gm/cm^2
same,bone mineral density at the midshaft femur (DXA),"[3]; Orx rats, 6 weeks",did not show any effect
same,bone mass of the whole femur (DXA),[3]; Orx rats,did not exhibit any significant effect
same,"loss in bone mineral density at the proximal femur, as in distal femur (DXA)","[3]; Orx rats, 6 weeks, 5 mg/kg/d Tor",ineffective
same,loss in bone mineral density at the proximal femur (DXA),"[3]; Orx rats, 6 weeks",somewhat helpful in preventing this loss
same,bone density at the distal femur (DXA),"[3]; Orx rats, 6 weeks",prevented Orx-related loss of bone density
